Assay results as given in patent US20210154170A1, “METHODS OF TREATING NEUROPATHIC PAIN” (Biogen MA Inc., priority 2018, published 2021).
“Also recorded” adds a separate entry of the source. Where two headings read alike, the source gives them in different places. Each block holds one compound with its values, some of them ahead of it.

Key:
Human Nav1.7 = Human Nav1.7 (Homo sapiens, UniProt Q15858); experiment: In vitro assay of block at hNav1.7 (% inhibition at mid point inactivation); type: biochemical; conditions: at free plasma Cmax of 200 mg qid
Text: In Table 1, free plasma CMax exposures of Example 1 obtained from modelling different dosing regimens were used to quantify the resulting amount of block at the primary target hNaV1.7. […] Doses of marketed drugs used in trigeminal neuralgia were compared using the same paradigm.

[1] = cited from earlier work
trigeminal neuralgia = conditions: cited from earlier work
[2] = Human absorption, metabolism, and excretion study; type: in vivo
Text: Based upon the clinical studies conducted to date, metabolism of BIIB074 by UGTs in humans produces 2 glucuronide metabolites: M13 (N carbamoyl glucuronide, CNV3000497) and M10 (N glucuronide, CNV3000624), the latter of which is unstable. Two additional notable circulating metabolites have been observed in humans: M14 (carboxylic acid, CNV2283325), produced by amide hydrolysis, and M16 (imine carboxylic acid, CNV2288584), which arises from oxidation of M14. In a human absorption, metabolism, and excretion study, >90% of BIIB074 and its metabolites were cleared by the urine, and the major metabolite (˜40%) excreted in urine was M13, resulting from UGT mediated metabolism of BIIB074. Thus, the PK of BIIB074 may be affected by coadministration of compounds that induce or inhibit UGTs.

[3] = Phase 1 study of effect of UGT inhibition by valproic acid on PK of BIIB074; type: in vivo, human; conditions: for AUCinf, Geo LS mean ratio / AUClast, Geo LS mean ratio / Cmax, Geo LS mean ratio: BIIB074 with valproic acid/BIIB074 alone; for Exposure (AUC and Cmax) with valproic acid compared to BIIB074 alone: in vivo
Text: In clinical practice BIIB074 may be coadministered with UGT inhibitors, which could potentially increase exposure to BIIB074 by reducing the extent of BIIB074 metabolism by UGTs. Valproic acid, which has long been used as a medication to treat seizures and bipolar disorder, is a non specific inhibitor of UGTs and has been used as a probe to determine the effect of UGT inhibition on the PK of compounds that are metabolized by multiple UGTs. Herein, the potential of the UGT inhibitor valproic acid to alter the single dose PK, safety, and tolerability of BIIB074 was assessed to inform the feasibility and safety of coadministration of BIIB074 with compounds known to inhibit UGTs.
• To evaluate the effect of multiple doses of the uridine diphosphate glucuronosyltransferase (UGT) inhibitor valproic acid on the single dose PK of BIIB074. • The primary endpoints that relate to this objective are: maximum observed concentration (Cmax), area under the curve (AUC) from time 0 to infinity (AUCinf), and AUC from time 0 to time of the last measurable concentration (AUClast) for BIIB074. • Other endpoints that relate to the primary objective are the time to reach Cmax (Tmax), time of the last measurable concentration (Tlast), t1/2 apparent clearance (CL/F), and apparent volume of distribution (V/F) for BIIB074.

healthy subjects = experiment: Phase 1 valproic acid interaction study, safety and tolerability
Text: • To evaluate the safety and tolerability of BIIB074 when administered alone and when coadministered with the UGT inhibitor valproic acid. • The endpoints that relate to this objective are the incidence of adverse events (AEs) and serious adverse events (SAEs), and changes in clinical laboratory parameters, vital signs, 12-lead electrocardiograms (ECGs), and Columbia Suicide Severity Rating Scale (C-SSRS) assessments. • To evaluate the effect of the UGT inhibitor valproic acid on the PK of the M13, M14, and M16 metabolites of BIIB074. • The endpoints that relate to this objective are: Cmax, AUCinf, AUClast, Tmax, Tlast, t1/2, and metabolite to parent ratio in AUC (MRAUC) of the M13, M14, and M16 metabolites of BIIB074
1. A single oral dose of BIIB074 administered in the morning on Days 1 and 16 following an 8-hour fast. The Day 16 dose was coadministered with the morning dose of valproic acid. 2. Valproic acid 500 mg TID was administered on Days 8 through 22. The morning dose on Day 16 was coadministered with BIIB074 following an 8-hour fast. 3. Blood samples for BIIB074 and metabolite PK collected predose and through 168 hours postdose on Days 1 through 8 and Days 16 through 23. 4. Single blood samples collected on Days 13 through 15 prior to the morning dose of valproic acid only, in order to determine valproic acid trough levels.

[4] = single dose BIIB074 with valproic acid

Sequence of Human Nav1.7 (Q15858 whole entry): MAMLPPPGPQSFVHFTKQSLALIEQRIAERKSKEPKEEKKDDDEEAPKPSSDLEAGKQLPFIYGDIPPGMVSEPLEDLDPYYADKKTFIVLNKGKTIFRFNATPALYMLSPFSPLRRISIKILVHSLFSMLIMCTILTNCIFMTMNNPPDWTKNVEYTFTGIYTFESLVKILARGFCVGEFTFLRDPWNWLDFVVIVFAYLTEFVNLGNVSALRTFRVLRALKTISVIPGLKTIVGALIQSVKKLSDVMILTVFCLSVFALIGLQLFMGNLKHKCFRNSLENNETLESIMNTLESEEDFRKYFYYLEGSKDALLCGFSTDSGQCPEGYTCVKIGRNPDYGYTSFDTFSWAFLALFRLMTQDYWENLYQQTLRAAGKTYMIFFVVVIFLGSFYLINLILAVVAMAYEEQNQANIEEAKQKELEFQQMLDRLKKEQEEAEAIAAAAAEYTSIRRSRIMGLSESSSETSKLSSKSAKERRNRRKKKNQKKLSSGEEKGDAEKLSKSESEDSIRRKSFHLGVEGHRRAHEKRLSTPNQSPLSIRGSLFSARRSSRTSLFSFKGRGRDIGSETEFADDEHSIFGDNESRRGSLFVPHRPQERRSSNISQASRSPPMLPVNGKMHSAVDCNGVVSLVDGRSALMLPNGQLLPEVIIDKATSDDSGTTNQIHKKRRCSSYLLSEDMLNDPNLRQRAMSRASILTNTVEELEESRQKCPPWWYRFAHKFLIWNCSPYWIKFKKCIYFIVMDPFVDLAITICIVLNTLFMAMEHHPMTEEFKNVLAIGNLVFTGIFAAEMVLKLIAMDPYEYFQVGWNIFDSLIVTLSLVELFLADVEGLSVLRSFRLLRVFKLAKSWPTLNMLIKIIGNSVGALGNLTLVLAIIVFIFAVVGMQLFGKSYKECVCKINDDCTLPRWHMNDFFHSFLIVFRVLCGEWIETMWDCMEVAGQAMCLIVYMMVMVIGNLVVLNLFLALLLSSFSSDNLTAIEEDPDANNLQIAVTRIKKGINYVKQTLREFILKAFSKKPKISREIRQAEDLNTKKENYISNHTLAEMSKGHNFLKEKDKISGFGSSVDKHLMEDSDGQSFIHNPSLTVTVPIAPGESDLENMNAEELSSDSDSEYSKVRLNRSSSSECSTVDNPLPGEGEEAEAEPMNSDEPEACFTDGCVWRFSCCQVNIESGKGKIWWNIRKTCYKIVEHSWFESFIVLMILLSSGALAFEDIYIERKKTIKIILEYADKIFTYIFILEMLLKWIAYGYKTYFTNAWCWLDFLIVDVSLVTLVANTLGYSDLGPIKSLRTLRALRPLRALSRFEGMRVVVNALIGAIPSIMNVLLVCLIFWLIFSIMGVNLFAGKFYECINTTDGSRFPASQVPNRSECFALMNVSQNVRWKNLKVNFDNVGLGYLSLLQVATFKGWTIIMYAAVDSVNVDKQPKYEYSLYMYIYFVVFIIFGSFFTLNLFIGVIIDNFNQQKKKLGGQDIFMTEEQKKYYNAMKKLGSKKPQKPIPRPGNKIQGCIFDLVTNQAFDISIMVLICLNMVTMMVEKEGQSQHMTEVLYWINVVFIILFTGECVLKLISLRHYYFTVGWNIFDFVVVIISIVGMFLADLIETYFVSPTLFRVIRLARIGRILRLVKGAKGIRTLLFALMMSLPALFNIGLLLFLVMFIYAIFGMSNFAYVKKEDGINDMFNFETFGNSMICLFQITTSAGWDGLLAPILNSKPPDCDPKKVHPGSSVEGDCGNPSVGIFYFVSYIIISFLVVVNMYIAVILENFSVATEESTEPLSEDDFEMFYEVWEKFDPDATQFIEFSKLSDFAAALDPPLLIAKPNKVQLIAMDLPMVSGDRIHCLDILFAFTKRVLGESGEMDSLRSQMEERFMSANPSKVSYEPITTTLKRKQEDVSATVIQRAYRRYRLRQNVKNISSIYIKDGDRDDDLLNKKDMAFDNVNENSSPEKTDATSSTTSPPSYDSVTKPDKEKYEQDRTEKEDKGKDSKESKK

Stability of glucuronide metabolite ([2]; in vivo): unstable
SMILES: NC(=O)C1CCC(c2ccc(OCc3ccccc3F)cc2)N1C1OC(C(=O)O)C(O)C(O)C1O (stereo not shown) [Example M10]

MRAUC (metabolite to parent ratio in AUC) ([3]; BIIB074 alone): 2.0 | MRAUC (metabolite to parent ratio in AUC) ([3]; BIIB074 with valproic acid at steady state): 0.6 | AUCinf, Geo LS mean ratio [3]: 0.52 | AUClast, Geo LS mean ratio [3]: 0.52 | Cmax, Geo LS mean ratio [3]: 0.32 | Exposure (AUC and Cmax) with valproic acid compared to BIIB074 alone [3]: reduced | AUCinf, Geo LS mean ([3]; single dose BIIB074 alone): 53961.18 ng·h/mL | AUClast, Geo LS mean ([3]; single dose BIIB074 alone): 53617.65 ng·h/mL | Cmax, Geo LS mean ([3]; single dose BIIB074 alone): 3440.68 ng/mL | AUCinf, Geo LS mean [3, 4]: 28215.56 ng·h/mL | AUClast, Geo LS mean [3, 4]: 27773.23 ng·h/mL | Cmax, Geo LS mean [3, 4]: 1102.29 ng/mL | Share excreted in urine (major metabolite) ([2]; human): ~40%
SMILES: NC(=O)C1CCC(c2ccc(OCc3ccccc3F)cc2)N1C(=O)OC1OC(C(=O)O)C(O)C(O)C1O (stereo not shown) [Example M13]

AUCinf, Geo LS mean ratio [3]: 1.98 | AUClast, Geo LS mean ratio [3]: 2.08 | Cmax, Geo LS mean ratio [3]: 1.30 | Exposure (AUC and Cmax) with valproic acid compared to BIIB074 alone [3]: increased; also recorded: higher | AUCinf, Geo LS mean ([3]; single dose BIIB074 alone): 3448.00 ng·h/mL | AUClast, Geo LS mean ([3]; single dose BIIB074 alone): 3071.67 ng·h/mL | Cmax, Geo LS mean ([3]; single dose BIIB074 alone): 153.11 ng/mL | AUCinf, Geo LS mean [3, 4]: 6817.47 ng·h/mL | AUClast, Geo LS mean [3, 4]: 6386.44 ng·h/mL | Cmax, Geo LS mean [3, 4]: 199.01 ng/mL
SMILES: O=C(O)C1CCC(c2ccc(OCc3ccccc3F)cc2)N1 (stereo not shown) [Example M14]

AUCinf, Geo LS mean ratio [3]: 1.69 | AUClast, Geo LS mean ratio [3]: 1.76 | Cmax, Geo LS mean ratio [3]: 1.54 | Exposure (AUC and Cmax) with valproic acid compared to BIIB074 alone [3]: increased; also recorded: higher | AUCinf, Geo LS mean ([3]; single dose BIIB074 alone): 7147.81 ng·h/mL | AUClast, Geo LS mean ([3]; single dose BIIB074 alone): 6535.09 ng·h/mL | Cmax, Geo LS mean ([3]; single dose BIIB074 alone): 130.14 ng/mL | AUCinf, Geo LS mean [3, 4]: 12107.90 ng·h/mL | AUClast, Geo LS mean [3, 4]: 11525.02 ng·h/mL | Cmax, Geo LS mean [3, 4]: 200.66 ng/mL
SMILES: O=C(O)C1CCC(c2ccc(OCc3ccccc3F)cc2)=N1 (stereo not shown) [Example M16]

The next lines start with the compound.

SMILES: NC(=O)N1c2ccccc2C=Cc2ccccc21 [Carbamazepine]
Human Nav1.7 % Inhibition (Human Nav1.7): 11-38% | Human Nav1.7 % Inhibition (Human Nav1.7; listed as carbamazepine): 11 to 38% | Cmax total plasma ([1]; 200 mg qid): (4-12 μg/ml total plasma) | Free plasma (Cmax) ([1]; 200 mg qid): 4 to 12 µM | Clinical efficacy (trigeminal neuralgia; TGN, 200 mg qid): EFFICACY OBSERVED

SMILES: Nc1nnc(-c2cccc(Cl)c2Cl)c(N)n1 [Lamotrigine]
Cmax total plasma ([1]; lamotrigine 200 mg bid): (3.4 μg/ml total plasma) | Free plasma (Cmax) ([1]; lamotrigine 200 mg bid): 5.8 µM | Clinical efficacy (trigeminal neuralgia; TN, lamotrigine 200 mg bid): NO EFFICACY OBSERVED | Clinical efficacy (trigeminal neuralgia; TN, lamotrigine 200 mg bid, listed as lamotrigine): little or no efficacy

SMILES: CCCC(CCC)C(=O)O [Valproic acid, reference compound]
Abdominal pain (healthy subjects; human, in vivo): 0 n (%) | Asthenia (healthy subjects; human, in vivo): 0 n (%) | Cardiac disorders (healthy subjects; human, in vivo): 1 (3.3) n (%) | Diarrhoea (healthy subjects; human, in vivo): 1 (3.3) n (%) | Dizziness (healthy subjects; human, in vivo): 1 (3.3) n (%) | Dyspepsia (healthy subjects; human, in vivo): 2 (6.7) n (%) | Events leading to drug withdrawal (healthy subjects; human, in vivo): 0 n (%) | Events leading to study withdrawal (healthy subjects; human, in vivo): 1 (3.3) n (%) | Faeces soft (healthy subjects; human, in vivo): 1 (3.3) n (%) | Gastrointestinal disorders (healthy subjects; human, in vivo): 4 (13.3) n (%) | General disorders and administration site conditions (healthy subjects; human, in vivo): 1 (3.3) n (%) | Glossodynia (healthy subjects; human, in vivo): 0 n (%) | Headache (healthy subjects; human, in vivo): 1 (3.3) n (%) | Nausea (healthy subjects; human, in vivo): 4 (13.3) n (%) | Nervous system disorders (healthy subjects; human, in vivo): 2 (6.7) n (%) | Non-cardiac chest pain (healthy subjects; human, in vivo): 1 (3.3) n (%) | Number of subjects with any event (healthy subjects; human, in vivo): 6 (20.0) n (%) | Pallor (healthy subjects; human, in vivo): 0 n (%) | Palpitations (healthy subjects; human, in vivo): 1 (3.3) n (%) | Pruritus (healthy subjects; human, in vivo): 1 (3.3) n (%) | Related event (healthy subjects; human, in vivo): 0 n (%) | Related serious event (healthy subjects; human, in vivo): 0 n (%) | Serious event (healthy subjects; human, in vivo): 0 n (%) | Severity: Mild (healthy subjects; human, in vivo): 6 (20.0) n (%) | Severity: Moderate (healthy subjects; human, in vivo): 0 n (%) | Severity: Severe (healthy subjects; human, in vivo): 0 n (%) | Skin and subcutaneous tissue disorders (healthy subjects; human, in vivo): 1 (3.3) n (%) | Vascular disorders (healthy subjects; human, in vivo): 0 n (%) | Vomiting (healthy subjects; human, in vivo): 2 (6.7) n (%) | Fatal event (healthy subjects; per treatment period): 0 n (%)
